Data: patent US20240390369A1, “METHODS FOR DETERMINING RESPONSIVENESS TO TYK2 INHIBITORS” (Bristol-Myers Squibb Company, priority 2021, published 2024)
“And” between values parts separate entries of the source, which are not always exact repeats. Equal values may be shown once.

Tested on: patients with psoriatic arthritis
Assay: Phase 2 trial in psoriatic arthritis: PASI75 response at week 16
Assay type: in vivo, human
Details: for Interaction Term for PASI75 response (ratio of odds ratios): week 16; for PASI75 response rate over time / Number of subjects, PASI75 Non-responder at week 16 / Number of subjects, PASI75 Responder at week 16 / Number of subjects, PASI75 Non-responder / Number of subjects, PASI75 Responder / Number of subjects: 6 mg QD; for PASI75 response rate over time: 12 mg QD, placebo, sixteen-week treatment period
Protocol: In a double-blind Phase 2 trial, 203 patients with psoriatic arthritis were randomized into three groups: deucravacitinib 6 mg once daily (N=70), deucravacitinib 12 mg once daily (N=67), or placebo (N=66). All subjects had active psoriatic arthritis according to the Classification Criteria for Psoriatic Arthritis (CASPAR); for active disease, these criteria required ≥3 tender joint count, ≥3 swollen joint count, and a C-reactive protein level above 3 mg/L. Other inclusion criteria included the following: presence of at least one plaque psoriasis lesion, and prior treatment failure with a non-biologic disease modifying anti-rheumatic drug, a non-steroidal anti-inflammatory drug, or a steroid. With respect to treatment history, approximately 70% of subjects had not received prior treatment with a biologic and were biologic naïve, while up to 30% of subjects had failed or had been intolerant to one TNF-inhibitor (TNF=Tumor necrosis factor, also known as TNFα). Randomization was stratified by prior TNF-inhibitor use (experienced/naïve) and body weight (<90 kg and ≥90 kg).
Clinical measures included the Psoriasis […] (PASI) score for skin psoriasis, American College of Rheumatology 20 (ACR20) response, Psoriatic Arthritis Disease Activity Score (PASDAS), Health Assessment Questionnaire-Disability Index (HAQ-DI), and Disease Activity Score 28 CRP (DAS28). To evaluate the predictive value of different protein measurements for the clinical response to deucravacitinib, baseline protein concentrations for responders and non-responders, as defined by ACR20 or PASI75 at week 16, were compared for each arm (placebo, 6 mg deucravacitinib once-daily, and 12 mg deucravacitinib once-daily).
In addition, a logistic regression model was fit, to determine whether baseline disease score (dichotomized by the median baseline score, into baseline score high and baseline score low groups) was associated with response status. The model generated an odds ratio for each dosed arm versus placebo, in baseline score high and baseline score low groups.
Boxplots for baseline protein level by response were generated with a horizontal line indicating the median protein level at baseline. For each treatment arm, a two-sample t-test was performed to test whether mean baseline serum protein level was different in responders versus non-responders. A Wilcoxon rank sum test (Mann-Whitney U test) was also performed to evaluate the difference in median serum protein level between responders and non-responders. Further, barplots of ACR20 and PASI75 response rate at week 16 for each treatment arm were generated for all subjects (protein level high and protein level low subjects, dichotomized according to median baseline level). Line plots of ACR20 and PASI75 response rate over time for each treatment arm were generated for protein level high and protein level low groups. Logistic regression models were also fit to evaluate associations between baseline protein levels and clinical outcome.
For certain analyses described herein, patients were dichotomized by median values (e.g., of the proteins listed above or other measures) into “high” and “low” groups, such that the high group had values above the median and the low group had values less than or equal to the median.
In addition, logistic regression models were fit for response measures ACR20 and PASI75, to generate the odds ratio of each of the deucravacitinib treatment arms versus placebo, in BD2-high and BD2-low groups. The following logistic regression models were used: • For ACR20 response status: ACR20 (Y/N)=treatment arm+BD2 group+treatment arm*BD2 group+TNF-inhibitor use+baseline weight (continuous). • For PASI75 response status: PASI75 (Y/N)=treatment arm+BD2 group+treatment arm*BD2 group+TNF-inhibitor use+baseline weight (continuous). […]

[1] = Above median baseline CRP level
[2] = Below median baseline CRP level

## [2H]C([2H])([2H])NC(=O)c1nnc(NC(=O)C2CC2)cc1Nc1cccc(-c2ncn(C)n2)c1OC [deucravacitinib, 6-(cyclopropanecarboxamido)-4-((2-methoxy-3-(1-methyl-1H-1,2,4-triazol-3-yl)phenyl)amino)-N-(methyl-d3)pyridazine-3-carboxamide]
6 mg QD vs placebo: BD2 high versus BD2 low
  Interaction Term for PASI75 response (ratio of odds ratios): 11.628
6 mg QD vs placebo: CRP high versus CRP low
  Interaction Term: treatment arm*CRP group, PASI75: 1.67
6 mg QD vs placebo: CRP-high versus CRP-low, adjusted for baseline PASI score
  Interaction Term: treatment arm*CRP group, PASI75: 1.67
6 mg QD vs placebo: IL-17A high versus IL-17A low, adjusted for baseline PASI score
  Interaction Term: treatment arm*IL-17A group, PASI75: 22.889
6 mg QD vs placebo: IL-17A high versus IL-17A low
  Interaction Term for PASI75 response (ratio of odds ratios): 22.851
6 mg QD vs placebo: baseline PASI high versus PASI low
  Interaction Term for PASI75 response (ratio of odds ratios): 5.51 and 5.514
BD2-high and BD2-low groups (FIG. 9)
  PASI75 response rate over time: dose-dependent PASI75 response rate over time was observed in the BD2-high group but not in the BD2-low group
CRP-high and CRP-low groups (FIG. 40)
  PASI75 response rate over time: higher response rates than the placebo arm
IL-17A-high and IL-17A-low groups (FIG. 23)
  PASI75 response rate over time: dose-dependent PASI75 response over time was observed in IL-17A-high but not in IL-17A-low PsA patients
IL-19-high and IL-19-low groups (FIG. 16)
  PASI75 response rate over time: dose-dependent PASI75 response over time was observed in IL-19-high but not in IL-19-low PsA patients
[1]
  Number of subjects, PASI75 Non-responder at week 16: 17
  Number of subjects, PASI75 Responder at week 16: 16
[2]
  Number of subjects, PASI75 Non-responder at week 16: 17
  Number of subjects, PASI75 Responder at week 16: 9
CRP-high-PASI-high
  Number of subjects, PASI75 Non-responder: 4
  Number of subjects, PASI75 Responder: 11
CRP-high-PASI-low
  Number of subjects, PASI75 Non-responder: 13
  Number of subjects, PASI75 Responder: 5
CRP-low-PASI-high
  Number of subjects, PASI75 Non-responder: 7
  Number of subjects, PASI75 Responder: 5
CRP-low-PASI-low
  Number of subjects, PASI75 Non-responder: 10
  Number of subjects, PASI75 Responder: 4
PASI75 non-responder at week 16, above baseline PASI median 6.6
  Number of subjects: 11
PASI75 non-responder at week 16, above median baseline BD2 level
  Number of subjects: 17
PASI75 non-responder at week 16, above median baseline IL-17A level
  Number of subjects: 14
PASI75 non-responder at week 16, above median baseline IL-19 level
  Number of subjects: 18
PASI75 non-responder at week 16, below baseline PASI median 6.6
  Number of subjects: 23
PASI75 non-responder at week 16, below median baseline BD2 level
  Number of subjects: 16
PASI75 non-responder at week 16, below median baseline IL-17A level
  Number of subjects: 20
PASI75 non-responder at week 16, below median baseline IL-19 level
  Number of subjects: 16
PASI75 non-responder, BD2-high-PASI-high
  Number of subjects: 8
PASI75 non-responder, BD2-high-PASI-low
  Number of subjects: 12
PASI75 non-responder, BD2-low-PASI-high
  Number of subjects: 3
PASI75 non-responder, BD2-low-PASI-low
  Number of subjects: 11
PASI75 non-responder, IL-17A-high-PASI-high
  Number of subjects: 8
PASI75 non-responder, IL-17A-high-PASI-low
  Number of subjects: 6
PASI75 non-responder, IL-17A-low-PASI-high
  Number of subjects: 3
PASI75 non-responder, IL-17A-low-PASI-low
  Number of subjects: 17
PASI75 non-responder, IL-19-high-PASI-high
  Number of subjects: 9
PASI75 non-responder, IL-19-high-PASI-low
  Number of subjects: 9
PASI75 non-responder, IL-19-low-PASI-high
  Number of subjects: 2
PASI75 non-responder, IL-19-low-PASI-low
  Number of subjects: 14
PASI75 responder at week 16, above baseline PASI median 6.6
  Number of subjects: 16
PASI75 responder at week 16, above median baseline BD2 level
  Number of subjects: 22
PASI75 responder at week 16, above median baseline IL-17A level
  Number of subjects: 19
PASI75 responder at week 16, above median baseline IL-19 level
  Number of subjects: 19
PASI75 responder at week 16, below baseline PASI median 6.6
  Number of subjects: 9
PASI75 responder at week 16, below median baseline BD2 level
  Number of subjects: 15
PASI75 responder at week 16, below median baseline IL-17A level
  Number of subjects: 6
PASI75 responder at week 16, below median baseline IL-19 level
  Number of subjects: 6
PASI75 responder, BD2-high-PASI-high
  Number of subjects: 14
